Source: ChEMBL document CHEMBL3507680, “University of Dundee, Gates Library screen for HepG2 cell viability”

Assay: Human HepG2 cell viability assay in 384 well format
Type: toxicity, cell-based
Set-up: dose 125 nL, time 70.5 hour; concentration not given beside the values
Details: HepG2 cells, read-out: Inhibition

Compound	cytotoxicity at 70.5 h
Oc1ccc(N(CCc2ccccc2)CCn2cncn2)cc1	7.13%
CC(C)(C)CN(CCC#N)Cn1cc(Cl)cn1	-3.15%
CCc1nc(C2CCCN(c3ncccn3)C2)no1 (configuration not stated)	-2.54%
COC(=O)c1ccccc1NS(=O)(=O)c1c(C)nn(C)c1C	-6.21%
Cn1cc(CCNC(=O)C2(c3cccc(Cl)c3)CC2)cn1	-18.4%
CCCOC1CCCN(C(=O)c2csc(S(N)(=O)=O)c2)C1 (configuration not stated)	9.57%
O=C(NCCCn1ccnc1)Nc1ccn(CCc2ccccn2)n1	-5.67%
CCN1CCOC(CNc2nccc(C(F)(F)F)n2)C1 (configuration not stated)	-6.79%
CCN(C(=O)c1ccc2nncn2c1)C(C)Cc1ccc(OC)cc1 (configuration not stated)	-5.25%
c1cnn(C2CN(CCCOc3ccc4c(c3)OCO4)C2)c1	11.1%
COCCCn1ccc(NC(=O)NCCn2ccnc2)n1	-8.92%
OC(COc1ccc2c(c1)OCO2)CN1CC(n2cccn2)C1 (configuration not stated)	-3.37%
CN(C)c1ccc(CCCNC(=O)NCC(O)c2cccs2)cc1 (configuration not stated)	-8.37%
CCOc1ccc(OC2CCCN(c3cnn(C)c3)C2=O)cc1 (configuration not stated)	10.6%
Cc1noc(-c2ccnc(N3CCCN(C4CCOCC4)CC3)c2)n1	-3.75%
Cn1cc(CCCNC(=O)NCC(O)c2ccsc2)cn1 (configuration not stated)	-2.64%
CS(=O)(=O)Cc1ccc(NC(=O)c2cccnc2)cc1F	-6.22%
CC(C)(C)n1ncc2c(=O)[nH]c(NC3CC=CC3)nc21	0.3%
CC(C)Cn1cc(NC(=O)NCC2CCN(c3ccccc3)C2)cn1 (configuration not stated)	-0.00229%
CCOC1CCCN(C(=O)c2[nH]nc(C)c2Br)C1 (configuration not stated)	-11.5%
CCOC(C)C(=O)Nc1ccc(Sc2nncn2C)c(Cl)c1 (configuration not stated)	-4.37%
CCN1CCOC(CNc2nccc(OC)n2)C1 (configuration not stated)	-5.64%
CC(C)COC(C)C(=O)N1CCCC1 (configuration not stated)	-7.16%
CCc1nc(C2CCCN(c3nccc(C)n3)C2)no1 (configuration not stated)	-12.5%
O=C(NCCCO)Nc1ccccc1	3.04%

Compound	cytotoxicity at 70.5 h
O=S1(=O)CCC(CNS(=O)(=O)N2CCc3ccccc3C2)C1 (configuration not stated)	1.82%
COc1ccc(NC(=O)CSC(F)(F)F)cn1	9.73%
Cc1nc(C(C)(C)C)sc1C(=O)NCCn1ccnc1	-7.91%
O=C(NCCNc1ncccn1)c1scnc1Cl	9.91%
Cc1nc(C(C)C)sc1C(=O)NCCn1ccnc1	-7.02%
CC(C)(C)CCNC(=O)c1ccc(Cl)c(NS(C)(=O)=O)c1	8.13%
O=C(NCCCO)Nc1cccc(I)c1	-5.84%
O=C(C[S+]([O-])Cc1cccc(F)c1)NC1CCCC1 (configuration not stated)	0.67%
COc1ccc(-c2ccc(C(=O)NCCCC(N)=O)c(F)c2)c(F)c1	-3.05%
O=C(NCCCO)Nc1cccc(C[S+]([O-])Cc2ccccc2)c1 (configuration not stated)	-4.46%
Cc1cccc(C(C)(C)NC(=O)CCS(C)(=O)=O)c1	-3.08%
COc1ccc(-c2ccc(C(=O)NS(C)(=O)=O)c(F)c2)cc1	-5.82%
CCN(C)S(=O)(=O)NCC1(c2cccc(Br)c2)CC1	-1.33%
O=C1CCC(=O)N1CCN1CCC(=Cc2ccccc2)CC1	-0.346%
Cc1nn(C)c(C)c1NC(=O)CNc1cc(C(F)(F)F)ccc1F	25%
CSc1ccc(NCC(=O)Nc2c(C)nn(C)c2C)cc1F	-4.28%
CNC(=O)CN1CCCC1c1ccccc1Br (configuration not stated)	-6.18%
CNC(=O)NC(=O)CN1CCN(CC(F)(F)F)CC1(C)C	-4.26%
CC1(C)CN(CC(F)(F)F)CCN1CC(=O)N1CCCCC1	11.7%
Cc1nn(C)c(C)c1CCC(=O)OCC(=O)N1CCc2sccc2C1	20.5%
O=S(=O)(NCc1cccnc1OC1CCCC1)N1CCOCC1	-10.2%
N#CCCN1CCC(=Cc2ccccc2)CC1	-6.02%
O=S(=O)(NCc1cccnc1OC1CCCC1)N1CCCCC1	0.259%
CCCc1nc(C)c(C(=O)NCCn2ccnc2)s1	-7.16%
Cc1cc(C)n(CCC(=O)OCC(=O)N2CCc3sccc3C2)n1	-4.48%

Compound	cytotoxicity at 70.5 h
CC1(C)CN(CC(F)(F)F)CCN1CC(=O)NC1CCCC1	-4.28%
CCc1nonc1NC(=O)C(C)Oc1ccccc1F (configuration not stated)	-10.4%
CCC(NCc1nccn1C)c1nc(C(F)(F)F)cs1 (configuration not stated)	-0.765%
Cc1cccc2c(CCNC(=O)NCCC[S+](C)[O-])c[nH]c12 (configuration not stated)	-1.72%
CC(C#N)(NC(=O)COc1ccccc1Br)C1CC1 (configuration not stated)	8.66%
Cc1nn(C)c(C)c1CC(=O)NCc1cccnc1OC1CCCC1	-3.95%
Cc1nn(C)c(C)c1C(=O)NCc1cccnc1OC1CCCC1	-5.73%
COc1ccc(Cl)cc1-c1cc(NC(=O)C2COCCO2)[nH]n1 (configuration not stated)	-4.84%
CC(C(=O)Nc1ncccn1)N1CCC(n2ccnc2)CC1 (configuration not stated)	-4.52%
Cc1cccc(C2(O)CCN(C(=O)c3ccccn3)CC2)c1C	1.09%
CS(=O)(=O)NCc1ccc(NC(=O)CC2=CCCCC2)cc1	-0.966%
COc1ccc(CN2CCC(C(N)=O)CC2)cc1SC(F)(F)F	5.97%
Cc1cc(C(C)(O)CNC(=O)C2(C)CCCC2)c(C)o1 (configuration not stated)	-0.0569%
Cc1ccc2c(c1)OCCCC2NC1CCN(C)CC1 (configuration not stated)	-0.243%
CCS(=O)(=O)NCCNCc1cc(F)ccc1Br	14.4%
Cc1nc(-c2cccc(C(=O)N(C)CC(C)O)c2)cs1 (configuration not stated)	0.422%
CCCNC(=O)C1CCCN(Cc2ccc(-n3cncn3)c(C)c2)C1 (configuration not stated)	-1.68%
COc1ccc(C(C)Nc2ncc(C(N)=O)cc2Cl)cc1F (configuration not stated)	-10.7%
Cc1nn2c(nc1=O)-c1ccccc1NC2C(=O)O (configuration not stated)	-9.44%
O=C(CC1CCCO1)Nc1ccc2c(ccn2CCN2CCOCC2)c1 (configuration not stated)	-8.05%
CN(Cc1ccccc1O)C(=O)Nc1cc(F)cc(N2CCCC2)c1	-7.37%
O=C(Cc1ccccc1O)Nc1ccc(N2CCCC2)nc1	-10.3%
Cc1cc(CS(=O)(=O)NCC2CCCCC2)on1	0.508%
COCCS(=O)(=O)NCC(C)c1cccc(C)c1 (configuration not stated)	-3.93%
CN(Cc1cnccn1)C(=O)Nc1cc(F)cc(N2CCCC2)c1	-5.64%

Compound	cytotoxicity at 70.5 h
Cc1cc(C(=O)NCC(=O)NC(c2ncccc2C)C(C)C)c(C)o1 (configuration not stated)	3.7%
CN1CCc2c(NC(=O)NCc3ccccc3Cl)cccc21	-1.74%
Cc1cc(N2CCC(NC(=O)CCc3cnn(C)c3)CC2)nc(C)n1	-4.77%
C[C@@H]1CN(C(=O)c2ccc(Br)cc2F)CC(C(N)=O)O1 (some centres not stated)	-4.88%
COc1cc(C)c(NC(=O)NCCn2cccc2)cc1OC	10.3%
Cc1cccc(NS(=O)(=O)c2cnn(C)c2)c1C#N	-12.8%
Cc1c(CNC(=O)Nc2cccc3c2CCN3C)cnn1C	-3.95%
N#Cc1ccc(S(=O)(=O)Nc2ccccc2C#N)cn1	-6%
COCCCS(=O)(=O)N1CCN(C(=O)CO)CC1	-0.333%
CC(C)OCCC(=O)N(C)c1ccc(F)c(Cl)c1	-4.66%
CCn1cc(C2CCN(Cc3ccnc(N(C)C)c3)CC2)cn1	-4.12%
c1csc(-c2noc(CC3CCCO3)n2)c1 (configuration not stated)	6.86%
CN(C)S(=O)(=O)c1ccc(CNc2ccc(Cl)cn2)cc1	0.742%
CCCn1ccc2cc(NC(=O)CC3CCCO3)ccc21 (configuration not stated)	-5.13%
CC(C)C(=O)N1CCN(CC(O)c2cc(Cl)ccc2Cl)CC1 (configuration not stated)	-7.34%
OC(CN1CCOCC1)c1cc(Cl)ccc1Cl (configuration not stated)	9.36%
CN1CCCN(C(=O)c2ccn3ccnc3c2)CC1	6.21%
O=C(c1ccncc1)N1CCCC1c1cccc(Br)c1 (configuration not stated)	21.6%
O=C(c1ccnc(NC2CC2)c1)N1CCCC1c1cccc(Br)c1 (configuration not stated)	-6.56%
CCc1cccc(OCC(=O)NC(C)c2nnc3n2CCC3)c1 (configuration not stated)	-3.83%
Cc1cccc(C)c1OCC(=O)NC(C)c1nnc2n1CCC2 (configuration not stated)	-7.81%
CCN(C(=O)CCc1ccc2c(c1)OCO2)C1CC(=O)NC1=O (configuration not stated)	6.1%
CC(NC(=O)COc1ccccc1Cl)c1nnc2n1CCC2 (configuration not stated)	-6.92%
CN(C)C(=O)C1CSCN1C(=O)CCc1ccco1 (configuration not stated)	-8.81%
COCCNC(=O)N1CCN(C(=O)Cc2ccccc2F)CC1	-8.11%

Compound	cytotoxicity at 70.5 h
CC(C)c1nnc2n1CCN(Cc1nc3c(F)cccc3[nH]1)C2	-5.06%
CN(CCc1cccs1)C(=O)Nc1cccc(S(C)(=O)=O)c1	-2.36%
COCC(C)(NC(=O)c1cc(Cl)c(-n2cccc2)cc1OC)C(N)=O (configuration not stated)	-2.57%
Fc1cccc2[nH]c(CN3CCn4c(nnc4C4CC4)C3)nc12	1.58%
Cc1nc(S(=O)(=O)N2CCSCC2)cn1C	-2.15%
Cn1cnc(S(=O)(=O)N2CCSC3(CCCCC3)C2)c1	4.34%
O=C(c1c(O)cnc2ccccc12)N1CCN(CC(F)F)CC1	-3.97%
CN(C)C(=O)N1CCN(C(=O)c2ccn3cncc3c2)CC1	0.173%
CCC(CC)S(=O)(=O)NC(=O)c1ccc2c(c1)ncn2C	-0.423%
COCCNC(=O)N1CC(Cc2ccccc2F)C1	-4.03%
COc1ccc(C)cc1C(C)NCc1cnnn1C (configuration not stated)	-1.22%
COc1ccc(C)cc1C(C)NCc1cccn1C (configuration not stated)	-0.611%
CC(NCc1ccsc1)c1ccc(OCc2nccn2C)cc1 (configuration not stated)	-3.28%
CC(NCc1cnn(C)c1)c1ccc(OCc2nccn2C)cc1 (configuration not stated)	-2.06%
CCn1cc(CNC2CCN(c3cccc(Cl)c3)C2)cn1 (configuration not stated)	-3.2%
Cc1cccc(CCC(=O)Nc2cccnc2N2CCC(O)CC2)c1	1%
Cc1cnn(CCC(=O)Nc2cccnc2N2CCC(CO)CC2)c1	-1.8%
Cc1ccc(C(=O)Nc2ccc(N3CCCC3)cn2)cc1C	0.417%
CCNC(=O)NC(=O)CN1CCOC(c2ccc(Br)cc2)C1 (configuration not stated)	-3.93%
O=C(CCN1CCC(c2cc3ccccc3[nH]2)CC1)N1CCOCC1	-1.25%
CN(CC(=O)NCC(C)(C)c1ccc2c(c1)OCO2)c1cnccn1	-12.3%
COCC(=O)N(C)Cc1ccc(OCc2cccs2)cc1	-6.51%
